Assay [1] deals with T1, Carboxy-terminal domain RNA polymerase II polypeptide A small phosphatase 1 (Homo sapiens, UniProt Q9GZU7).
T1 sequence (Q9GZU7 whole entry): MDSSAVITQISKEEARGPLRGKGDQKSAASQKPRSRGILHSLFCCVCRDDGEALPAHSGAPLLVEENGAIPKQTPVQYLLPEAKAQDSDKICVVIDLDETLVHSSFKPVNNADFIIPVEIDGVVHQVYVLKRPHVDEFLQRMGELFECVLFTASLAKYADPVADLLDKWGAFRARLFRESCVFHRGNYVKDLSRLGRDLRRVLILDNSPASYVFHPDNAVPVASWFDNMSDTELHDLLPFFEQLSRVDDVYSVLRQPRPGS
Put plainly: CTDSP1 inhibitors, concentration-response, biochemical, absorbance readout, ultra-high-throughput screen actives (AID 540297). It is filed as functional.

Assay [2] can be described thus: microbe, parasite or virus in culture. The format is functional. The following applies: Mycobacterium tuberculosis.
The target of the next assay is T2, Protein skinhead-1 (Caenorhabditis elegans, UniProt P34707).
T2 sequence (P34707 whole entry): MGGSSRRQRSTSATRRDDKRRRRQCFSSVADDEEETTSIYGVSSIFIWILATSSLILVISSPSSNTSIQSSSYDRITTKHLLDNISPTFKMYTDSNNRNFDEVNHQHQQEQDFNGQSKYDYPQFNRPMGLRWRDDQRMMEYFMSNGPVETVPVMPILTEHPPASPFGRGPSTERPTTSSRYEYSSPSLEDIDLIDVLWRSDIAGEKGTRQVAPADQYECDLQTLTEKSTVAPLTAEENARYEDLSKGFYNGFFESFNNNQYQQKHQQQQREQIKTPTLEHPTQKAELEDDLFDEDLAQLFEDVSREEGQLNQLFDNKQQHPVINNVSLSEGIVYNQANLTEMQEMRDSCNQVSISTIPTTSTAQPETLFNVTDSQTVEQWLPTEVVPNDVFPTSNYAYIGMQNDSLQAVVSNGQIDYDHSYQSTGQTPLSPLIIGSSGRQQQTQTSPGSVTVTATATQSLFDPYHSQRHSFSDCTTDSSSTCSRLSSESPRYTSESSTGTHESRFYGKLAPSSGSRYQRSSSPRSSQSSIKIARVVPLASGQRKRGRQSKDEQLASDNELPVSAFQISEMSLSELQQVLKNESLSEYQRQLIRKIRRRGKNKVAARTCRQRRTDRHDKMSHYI
The format is functional.

For the next assay, the system named is H9c2. Put plainly: cells. It is filed as functional, cell-based. The following applies: Rattus norvegicus, H9c2, Myocardium.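 Also: confirmatory concentration-response retest of ultra-high-throughput screening hits for modulation of myocardial damage; cell death induced by hydrogen peroxide oxidative stress; compound pretreatment for 60 min then peroxide exposure for 2 h; potency is for protecting the cells against peroxide damage rather than for killing them.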
In assay [3] the target is T3, Polyadenylate-binding protein 1 (Homo sapiens, UniProt P11940). Put plainly: MLLE binding blockers, Cy5 peptide tracer – biochemical, fluorescence polarization, Cy5-PAM2 peptide, secondary, miRNA deadenylation inhibitor project, dose response (AID 602260). It is filed as functional. The following applies: read-out: IC50_Mean.
T3 sequence (P11940 whole entry, the tested form may be a part): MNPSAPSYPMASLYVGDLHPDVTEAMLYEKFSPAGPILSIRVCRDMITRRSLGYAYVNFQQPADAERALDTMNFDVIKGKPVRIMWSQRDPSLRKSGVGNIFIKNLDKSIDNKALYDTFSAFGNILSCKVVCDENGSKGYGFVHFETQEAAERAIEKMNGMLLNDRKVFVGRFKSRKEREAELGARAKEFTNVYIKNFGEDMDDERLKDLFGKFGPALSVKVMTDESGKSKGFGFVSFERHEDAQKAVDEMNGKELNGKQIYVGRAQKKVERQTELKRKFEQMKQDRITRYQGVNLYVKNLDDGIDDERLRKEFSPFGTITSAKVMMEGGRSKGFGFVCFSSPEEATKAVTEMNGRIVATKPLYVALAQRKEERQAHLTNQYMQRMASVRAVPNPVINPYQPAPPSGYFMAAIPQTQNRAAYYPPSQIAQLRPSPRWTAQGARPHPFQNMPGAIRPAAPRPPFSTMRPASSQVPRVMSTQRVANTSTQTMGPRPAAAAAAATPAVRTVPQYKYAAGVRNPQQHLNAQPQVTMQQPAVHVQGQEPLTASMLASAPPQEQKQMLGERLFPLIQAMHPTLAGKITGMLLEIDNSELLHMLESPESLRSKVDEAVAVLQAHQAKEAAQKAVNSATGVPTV
Assay [4] addresses T3, Polyadenylate-binding protein 1. Put plainly: MLLE domain peptide-binding blockers, IC50 – biochemical, fluorescence polarization, FITC-PAM2 peptide, dose response (AID 602259). The format is functional. The following applies: read-out: IC50_Mean. On the technique in general: Polarisation of emitted light reports the rotation of a fluorescent probe.
Assay [5] in a line: reduction of Shn3 3'UTR-driven luciferase in osteoblasts – cell-based, Clone20 osteoblasts, firefly luciferase, cherry-picked, dose response (AID 624132).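 Also: firefly luciferase luminescence from reporter carrying the Shn3 3'UTR in osteoblasts.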 The format is functional.
Assay [6] is described as follows: loss of viability in HepG2 cells – cell-based, CellTiter-Glo, cherry-picked, cytotoxicity control for Shn3 inhibitor project, dose response (AID 624134). It is filed as functional.
Assay [7] can be described thus: non-specific 3'UTR reporter inhibition in Clone20-Shn3RL – cell-based, Renilla luciferase, cherry-picked, counter-screen for Shn3 inhibitor project, dose response (AID 624133). The format is functional. In general terms: A counterscreen serves to expose hits that act by an unwanted route or on another target.
In a further assay the target is Genome polyprotein (dengue virus type 2, UniProt P29990). Nature of the assay: flavivirus cap methylation enzyme inhibition – biochemical, confirmation dose response, primary screen (AID 588689). The format is functional.
Chain of Genome polyprotein (P29990 2492-3391 limits assumed): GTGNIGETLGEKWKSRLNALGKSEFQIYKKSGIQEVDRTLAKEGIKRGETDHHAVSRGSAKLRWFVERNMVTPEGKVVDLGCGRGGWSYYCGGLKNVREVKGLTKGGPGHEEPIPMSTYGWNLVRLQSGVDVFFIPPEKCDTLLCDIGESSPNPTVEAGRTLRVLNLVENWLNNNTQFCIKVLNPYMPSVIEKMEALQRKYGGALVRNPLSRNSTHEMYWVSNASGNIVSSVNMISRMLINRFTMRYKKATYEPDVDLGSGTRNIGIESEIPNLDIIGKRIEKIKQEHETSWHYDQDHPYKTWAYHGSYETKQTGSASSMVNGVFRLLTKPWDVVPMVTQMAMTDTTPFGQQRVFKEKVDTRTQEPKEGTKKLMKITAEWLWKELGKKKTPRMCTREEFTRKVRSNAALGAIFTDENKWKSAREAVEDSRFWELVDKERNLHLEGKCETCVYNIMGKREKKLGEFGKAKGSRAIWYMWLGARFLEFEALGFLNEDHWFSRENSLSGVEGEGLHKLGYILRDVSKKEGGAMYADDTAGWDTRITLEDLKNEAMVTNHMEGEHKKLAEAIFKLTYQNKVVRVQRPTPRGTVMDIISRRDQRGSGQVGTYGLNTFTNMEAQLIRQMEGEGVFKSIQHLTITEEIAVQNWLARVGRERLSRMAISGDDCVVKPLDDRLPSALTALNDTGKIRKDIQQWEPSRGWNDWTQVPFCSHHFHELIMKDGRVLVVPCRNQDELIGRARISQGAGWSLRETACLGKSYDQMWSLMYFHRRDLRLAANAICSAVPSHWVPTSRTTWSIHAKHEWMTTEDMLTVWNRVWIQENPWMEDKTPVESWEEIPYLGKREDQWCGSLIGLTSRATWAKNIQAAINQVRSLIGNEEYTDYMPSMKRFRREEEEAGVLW
Assay [8] can be described thus: NIH-3T3 fibroblast cytotoxicity, dose response, cytotoxicity control, cell-based, fluorescence, Alamar Blue, secondary assay (AID 2327).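 Also: NIH-3T3 mouse fibroblasts cultured with fluconazole at 8 µg/mL.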 It is filed as functional.
Assay [9] in a line: fluconazole-exposed Candida albicans growth modulators – fluorescence, retest, confirmation (AID 2467). It is filed as functional, cell-based.
The target of assay [10] is T4, Corticotropin-releasing factor receptor 2/Corticotropin-releasing factor-binding protein (Homo sapiens, UniProt P24387+Q13324).
T4 sequence (Q13324 whole entry): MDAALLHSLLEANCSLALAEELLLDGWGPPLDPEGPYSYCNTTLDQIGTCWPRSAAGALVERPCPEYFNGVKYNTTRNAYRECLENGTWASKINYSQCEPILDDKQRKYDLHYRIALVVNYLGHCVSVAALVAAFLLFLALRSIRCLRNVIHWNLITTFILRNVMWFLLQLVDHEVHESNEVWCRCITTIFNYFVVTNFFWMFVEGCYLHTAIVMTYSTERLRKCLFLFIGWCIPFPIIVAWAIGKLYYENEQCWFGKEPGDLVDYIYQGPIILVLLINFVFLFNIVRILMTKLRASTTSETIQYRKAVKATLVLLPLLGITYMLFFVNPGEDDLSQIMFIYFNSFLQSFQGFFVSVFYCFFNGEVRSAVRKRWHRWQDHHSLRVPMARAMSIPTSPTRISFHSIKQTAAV
T4 sequence (P24387 whole entry): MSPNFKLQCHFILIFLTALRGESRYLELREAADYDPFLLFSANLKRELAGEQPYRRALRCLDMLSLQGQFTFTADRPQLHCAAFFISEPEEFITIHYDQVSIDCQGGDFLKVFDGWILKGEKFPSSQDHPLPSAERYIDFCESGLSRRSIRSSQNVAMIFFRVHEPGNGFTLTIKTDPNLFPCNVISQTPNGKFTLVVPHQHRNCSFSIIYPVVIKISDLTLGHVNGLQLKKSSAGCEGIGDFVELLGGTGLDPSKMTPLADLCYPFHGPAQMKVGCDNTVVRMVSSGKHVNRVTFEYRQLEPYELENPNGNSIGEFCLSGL
Put plainly: Dose Response confirmation of uHTS hits for small molecule antagonists of the CRF-binding protein and CRF-R2 receptor complex. It is filed as functional. The following applies: read-out: IC50_Mean.

Assay [11] deals with T4, Corticotropin-releasing factor receptor 2/Corticotropin-releasing factor-binding protein. Put plainly: activators of CRF receptor 2 with binding protein – uHTS hits, confirmation (AID 602473). The format is functional. The following applies: read-out: EC50_Mean.
The nature of assay [12]: Trypanosoma cruzi growth suppression in host cells – NIH3T3 host cells, beta-gal luminescence, confirmation (AID 2044).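 Also: intracellular parasites grown in NIH/3T3 mouse fibroblasts as host cells; luminescent beta-galactosidase reporter signal from transgenic T. cruzi replicating inside host cells; inhibitors lower the luminescence signal.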 It is filed as functional, cell-based.
A short description of assay [13]: NIH3T3 cell viability loss – ATP luminescence, mouse fibroblasts, counter-screen, dose response (AID 2010).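 Also: cells exposed to compound for about 90 hours before reading.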 It is filed as functional, cell-based.
The nature of assay [14]: viability of uninfected HEp-2 cells – cell-based, HTS, cytotoxicity control for RSV inhibitor project, dose response (AID 2410). The format is functional. The following applies: human respiratory syncytial virus.
A further assay deals with Paired box protein Pax-8 (Homo sapiens, UniProt Q06710). Put plainly: PAX8 transcriptional activity inhibition in RMG-I – RMG-I cells, luciferase, cherry-pick, dose response (AID 687027).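 Also: luciferase reporter driven by Pax8 target thyroperoxidase promoter measured by SteadyGlo luminescence.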 It is filed as functional, cell-based.
Chain of Paired box protein Pax-8 (Q06710 whole entry): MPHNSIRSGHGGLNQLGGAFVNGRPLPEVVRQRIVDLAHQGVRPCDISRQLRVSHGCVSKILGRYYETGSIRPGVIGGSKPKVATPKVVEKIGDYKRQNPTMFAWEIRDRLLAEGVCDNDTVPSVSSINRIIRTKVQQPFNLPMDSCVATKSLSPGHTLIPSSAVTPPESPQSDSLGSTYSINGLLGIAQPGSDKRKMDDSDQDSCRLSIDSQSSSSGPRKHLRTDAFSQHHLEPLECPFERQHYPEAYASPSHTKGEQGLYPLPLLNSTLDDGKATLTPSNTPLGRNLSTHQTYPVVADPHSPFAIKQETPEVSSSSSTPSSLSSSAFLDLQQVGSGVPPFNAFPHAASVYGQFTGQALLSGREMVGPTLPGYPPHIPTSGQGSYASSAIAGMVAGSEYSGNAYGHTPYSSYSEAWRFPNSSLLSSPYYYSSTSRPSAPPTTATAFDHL

A word on the AC50: it is the concentration giving half of the maximal activity seen.

Where a name gives a salt, the structure may show the parent alone. Activity calls are given as the source filed them.

Take `Cc1nn(-c2cc(Cl)ccc2N)c(=O)c2ccccc12`: the IC50 in assay [1] is 63.2 µM (active).
Regarding `Cc1ccc(-c2ccc(=O)n(CC(=O)N3CCN(c4cc(Cl)ccc4C)CC3)n2)cc1`, in assay [2], the CC50 was > 40 µM (active).
Turning to `O=c1[nH]c2cc(Cl)c(Br)cc2o1` [BROMCHLORENONE], the IC50 on Protein skinhead-1 is > 100 µM (inactive).
Take `CC/N=c1\scc(-c2ccco2)n1/N=C/c1ccc(OC)c(O)c1`: the CC50 in assay [2] was > 40 µM (active).
Turning to `O=C(NCc1ccc(F)c(F)c1)c1ccc(-c2ccc(F)c(F)c2)c2ccoc12`, the IC50 at Protein skinhead-1 is < 3.13 µM (active).
As to `NC(=O)c1ccsc1NC(=O)COC(=O)Cc1nnc(O)c2ccccc12`, the IC50 with H9c2 is > 79 µM (inactive).
Regarding `Cc1cc2cc(CN=C(S)Nc3ccc(OC(F)F)cc3)ccc2n1C`, the figures for the IC50 (in assay [3]; in assay [4]; at Protein skinhead-1) were > 66 µM (inactive), > 66 µM (inactive) and > 100 µM (inactive), respectively.
As to `O=S(=O)(NC(=S)c1ccccc1)c1ccccc1`, the IC50 in assay [3] and in [4] was > 66 µM (inactive) throughout.
Regarding `Cc1cc(C)c(S(=O)(=O)N2Cc3ccccc3-n3nncc3C2)c(C)c1`, the AC50 was 4.36 µM (active) in [5], 49.7 µM (active) in assay [6] and 5.53 µM (active) in [7].
For the compound `O=C(Nc1cccc(Oc2ccccc2)c1)C1Cc2c(-c3ccc4c(c3)OCO4)ccnc2O1` (stereo unspecified), on Protein skinhead-1, the IC50 was > 100 µM (inactive).
In the case of `C/C(=N/Nc1ccc(C(=O)O)cc1)c1ccc(O)c(O)c1O`, the IC50 at Genome polyprotein is > 100 µM (active).
For `O=C(C1CC(=O)N(c2ccc3c(c2)OCCO3)C1)N1CCN(c2cccc(C(F)(F)F)c2)CC1` (stereo unspecified), the CC50 in assay [2] was > 40 µM (active).
`O=C(Nc1cccc(-c2csc(Nc3ccc(Cl)cc3)n2)c1)c1cccc(C(F)(F)F)c1`: the CC50 in assay [2] is 20.6 µM (active).
On to `N#CCC(=O)N/N=C/c1ccc(Sc2nc3ccccc3s2)o1`, for which the IC50 in assay [1] was 9.4 µM (active).
Regarding `CCc1ccc(NCc2nc(-c3ccccc3)no2)cc1`, the IC50 at Protein skinhead-1 was > 100 µM (inactive).
Same read-out and setting: with `CN(C)CCCO[C@@H]1[C@H]2OC(C)(C)O[C@H]2O[C@@H]1[C@H](O)CO` [AMIPRILOSE HYDROCHLORIDE] the figure was > 100 µM (inactive).
As for `Cc1cccc(NC(=O)CSC(N)=O)c1C`, the EC50 was > 150 µM (inactive) in assay [8] and > 38 µM (not active) in [9]. Moreover, the IC50 in assay [3] and in assay [4] was > 66 µM (inactive) throughout.
`C=C1c2cccc(OC)c2O[C@H](C(=O)OCC)[C@@H]1CCCCCC`: the IC50 in assay [1] was 10.2 µM (active).
With `Brc1ccc(-c2ccc(/C=N/Nc3nncc(-c4ccccc4)n3)o2)cc1`, the CC50 in assay [2] is 20.7 µM (active).
Take `N#C/C(=C1\CCCN1)c1nc(O)c2ccccc2n1`: the IC50 with H9c2 was 60.4 µM (inactive); in [10], > 47.1 µM (inactive). Moreover, the EC50 in [11] is > 53 µM (inactive).
Regarding `O=C(CN1C2CCC1CC(NC(=O)C1CC1)C2)NCc1ccccc1` (stereo unspecified), the IC50 on Protein skinhead-1 was > 100 µM (inactive).
For `O=C(CSc1ccc(-c2ccccn2)nn1)N1CCCc2ccccc21`, the IC50 with H9c2 is 20.8 µM (active).
On to `O=C(Cc1ccccc1)N/N=C/c1ccc2cccc(O)c2n1`, for which the CC50 in [2] was > 40 µM (active).
On to `COc1ccccc1CNC(=O)CSC1=NCCS1`, for which the IC50 in assay [3] and in [4] was > 66 µM (inactive) in each case.
Consider `CC(=O)Oc1oc(-c2ccccc2)nc1/C=N/c1ccccc1`, for which the IC50 on Genome polyprotein is 86.3 µM (active). The EC50 in [11] is 22.3 µM (active).
In the case of `NC(=S)N/N=C/c1ccccc1OCCSc1ccc(Cl)cc1`, the EC50 in assay [12] was 0.224 µM (active); in assay [13], > 60 µM (not active). Further, the CC50 in assay [2] was 24.6 µM (active).
As for `C=CCOC(=O)C1=C[C@H](c2cn(C(C)=O)c3ccccc23)C[C@H](OCc2ccc(CO)cc2)O1`, in the assay with H9c2, the IC50 was 10.3 µM (active).
For `O=C(CSC1=Nc2ccccc2C2=NC(CC(=O)NC3CCCCC3)C(=O)N12)NCc1ccco1` (stereo unspecified), the IC50 in [3] was > 66 µM (inactive); in [4], 31.2 µM (inactive).
`NC(=O)c1ccccc1OCC(=O)Nc1cccnc1Cl`: the IC50 in the assay with H9c2 is 27.7 µM (active).
Turning to `O=C(NC(=S)Nc1ccc2c(c1)OCCO2)c1cccc(Br)c1`, in assay [14], the CC50 is 34.8 µM (active). Also, the IC50 in assay [3] and in assay [4] was > 66 µM (inactive) each time.
For `CCOc1ccc(C(=O)COC(=O)Cn2[nH]c(=O)c3ccccc3c2=O)cc1`, in the assay with H9c2, the IC50 is > 79 µM (inactive).
For `CCOC(=O)C1CCCN(C(=O)c2ccc(-c3ccc([N+](=O)[O-])cc3)o2)C1` (stereo unspecified), the IC50 in assay [3] and in assay [4] was > 66 µM (inactive) each time.
With `CCOC(=O)c1c(NC(=O)c2ccccc2)sc2c1CCc1ccccc1-2`, the IC50 in assay [3] and in [4] was > 66 µM (inactive) each time.
`O=C(Nc1ccc(Cl)cc1)Nc1ccc(Br)cn1`: the IC50 on Protein skinhead-1 is > 100 µM (inactive).
Regarding `Cc1cc(=O)oc2cc(OCC(=O)N3CCN(C(=O)C4COc5ccccc5O4)CC3)c(Cl)cc12` (stereo unspecified), the IC50 in the assay on H9c2 was > 79 µM (inactive).
On to `Oc1cccc2cc(Nc3ccccc3)cnc12`, for which the concentration at half-maximal activity (AC50) was 0.644 µM (active) in [5], 4 µM (active) in [6], 1.4 µM (active) in assay [7] and 1.37 µM (active) at Paired box protein Pax-8.
Take `Cc1cc(SCNC(=O)c2ccccc2)nc(C(C)C)n1`: the IC50 in assay [3] and in assay [4] was > 66 µM (inactive) throughout.
With `COc1ccc(C(C2C(=O)CC(C)(C)CC2=O)C2C(=O)CC(C)(C)CC2=O)cc1COCC(F)(F)F`, the IC50 at Genome polyprotein is 27.7 µM (active).
